Results on six molecules are retold here after paper PMC5840523, “Assessment of a pretomanid analogue library for African trypanosomiasis: Hit-to-lead studies on 6-substituted 2-nitro-6,7-dihydro-5H-imidazo[2,1-b][1,3]thiazine 8-oxides” (Bioorganic & Medicinal Chemistry Letters, 2018).

Structures are written as SMILES. In brackets after ≈: the same amount, converted by molar mass. Where two headings read alike, the source gives them in different places. Bounds are passed on as bounds.

One data set has as its system Leishmania infantum. As to the kind of experiment: L. infantum growth inhibition (University of Antwerp). In kind it is cell-based. As to conditions: mean of 2 to 5 determinations.
A short description of another data set: in vitro. As to conditions: dog, MDCK-MDR1.
The test system of data set [1] is human lung fibroblasts (MRC-5 cells). Nature of the data set: Cytotoxicity toward MRC-5 cells (University of Antwerp). In kind it is cell-based.
Data set [2] relates to T. b. brucei 427. As to the kind of experiment: T. b. brucei growth inhibition (University of Antwerp). In kind it is cell-based, Trypanosoma brucei brucei. Particulars: for IC50: T. b. brucei 427, mean of 2 to 5 determinations, read-out: IC50 T. b. bruc.
In another data set the test system is Trypanosoma cruzi. Nature of the data set: T. cruzi growth inhibition (University of Antwerp). The format is cell-based. As to conditions: mean of 2 to 5 determinations.
Data set [3] can be described thus: Kinetic solubility in water or 0.1 M HCl (ACSRC). The format is physicochemical. As to conditions: read-out: aqueous solubility.
A short description of data set [4]: Human liver microsomal stability. The format is in vitro ADME. Particulars: pooled human liver microsomes. (In general: Liver microsomes are a subcellular fraction often used to study metabolism.)
The next data set deals with T. b. rhodesiense. As to the kind of experiment: T. b. rhodesiense growth inhibition (University of Antwerp). In kind it is cell-based, Trypanosoma brucei rhodesiense. As to conditions: for IC50: mean of 2 to 5 determinations, read-out: IC50 T. b. rhod.
Data set [5] can be described thus: Mouse liver microsomal stability. In kind it is in vitro ADME. Particulars: CD-1 mouse liver microsomes.
For a further data set, the system named is L929 mouse fibroblasts. As to the kind of experiment: Cytotoxicity toward L929 mouse fibroblasts (Scynexis). In kind it is cell-based.
Data set [6] concerns T. b. brucei (TREU 667). As to the kind of experiment: CNS (stage 2, chronic) HAT infection mouse model. In kind it is in vivo, T. b. brucei; female Swiss Webster mice. As to the method:
Therefore, 24 was examined in a stage 1 HAT mouse model.[14] Briefly, dosing was orally once daily for four days, starting 24 h postinfection, and parasitemia was assessed weekly via tail vein blood smears (see the Supporting Information). Excellent activity was observed (Table 4), with 24 providing complete cures (i.e. parasite free blood smears after >30 days) to all mice at doses as low as 5 mg/kg, similar to the control drug pentamidine (given i.p. at 2 mg/kg), whereas the vehicle only mice died on day 7. […]
Mouse Model for Chronic HAT Inf ection. Compound 24 was tested for in vi vo efficac y against chronic HAT infection caused b y T. b. brucei (TREU 667 strain) at the Haskin s Laboratories, Pace Universit y. […]
suspension formulation (0.8% CMC, 0.1% SDS in water) to groups of 8 or 10infected f emal e Swiss Webster mice, starting 21 d postinfection, according to a report ed method. 5 Animals remaining parasite free for more than 180 da ys beyond the end of the treatment period were […]

In another data set the test system is T. b. brucei (EATRO 110). As to the kind of experiment: Acute (stage 1) HAT infection mouse model. The format is in vivo, T. b. brucei; female Swiss Webster mice. As to the method:
Therefore, 24 was examined in a stage 1 HAT mouse model.[14] Briefly, dosing was orally once daily for four days, starting 24 h postinfection, and parasitemia was assessed weekly via tail vein blood smears (see the Supporting Information). Excellent activity was observed (Table 4), with 24 providing complete cures (i.e. parasite free blood smears after >30 days) to all mice at doses as low as 5 mg/kg, similar to the control drug pentamidine (given i.p. at 2 mg/kg), whereas the vehicle only mice died on day 7. […] Here, oral dosing of 24 (at 12.5 to 50 mg/kg once daily for seven days from day 21 postinfection) led to significant increases in survival times in comparison to untreated controls (66–70 days vs 31 days; Table 5), although cure rates were inadequate (0–20%). […]
Mouse Model f or Acu te HAT Inf ection. Compound 24 was tested for in vivo effi cac y against acute HAT infection caused b y T. b. brucei (EATRO 110 strain) at the Haskins Laboratories, Pace Universit y. […] Infected animals or th ose showing si gns of infectionwer e euthanized.Untreated infected contr ol animals died after 5-7 days; mice remaining parasite free for more than 30 da ys beyond the end of the tr eatment period w er e con sidered cur ed. […]

Data set [7] relates to T. b. brucei 427. Nature of the data set: T. b. brucei 427 growth inhibition (Scynexis). In kind it is cell-based, Trypanosoma brucei brucei. Particulars: for IC50: Trypanosoma brucei, growth inhibition of T. b. brucei 427, mean ± SD.
The test system of data set [8] is T. b. brucei (TREU 667). As to conditions: cited from earlier work.
The mark [9] stands for this setting: Homo sapiens, MRC5, cytotoxicity toward human lung fibroblasts.
[10] abbreviates: Trypanosoma brucei, RHODESIENSE
Where [11] appears, read: 12.5 mg/kg orally once daily for 7 d from day 21 postinfection.
[12] abbreviates: 25 mg/kg orally once daily for 7 d from day 21 postinfection.
Where [13] appears, read: 50 mg/kg orally once daily for 7 d from day 21 postinfection.
Setting [14] is: 1.25 mg/kg orally once daily for 4 days.
Where [15] appears, read: 2.5 mg/kg orally once daily for 4 days.
The mark [16] stands for this setting: 5 mg/kg orally once daily for 4 days.
Where [17] appears, read: 12.5 mg/kg orally once daily for 4 days.
[18] abbreviates: 25 mg/kg orally once daily for 4 days.
Where [19] appears, read: 50 mg/kg orally once daily for 4 days.

The term IC50 denotes the concentration at which inhibition is half-maximal. In general, Papp A→B refers to the apparent permeability from the apical to the basolateral side of a cell layer. Higher therefore signals fast passage. For orientation: Papp B→A means the apparent permeability from the basolateral to the apical side of a cell layer. As a reminder, the solubility is the dissolved amount per volume that the medium holds. A word on the share remaining: it is what is left of the initial amount, in per cent. Higher therefore signals greater stability. As to `O=[N+]([O-])c1cn2c(n1)[S+]([O-])CC(OCc1ccc(-c3ccc(OC(F)(F)F)cc3)cn1)C2` (stereo not drawn) [Compound 35, 2-Nitro-6-({5-[4-(trifluoromethoxy)phenyl]pyridin-2-yl}methoxy)-6,7-dihydro-5H-imidazo[2,1-b][1,3]thiazine 8-oxide], the IC50 with Leishmania infantum turned out to be 0.41 µM; in data set [1] (cytotoxicity toward human lung fibroblasts), 16 µM; in the data set on T. b. brucei 427 [2], 0.03 µM; in the data set with Trypanosoma cruzi, 0.067 µM; in the data set with T. b. rhodesiense it was 0.023 µM. For the same molecule, in “in vitro”, the Papp A→B at 150 min, 2 µM is 11.7 ×10⁻⁶ cm/s. For the same molecule, the Papp B→A at 150 min, 2 µM in the data set “in vitro” was found to be 18.2 ×10⁻⁶ cm/s. Besides, in [1], the “selectivity index (MRC-5 IC50 / HAT IC50)” value is above 500 times. For the same molecule, in [1], the “selectivity index relative to 12 (fold better)” value is listed as 2.4 fold. Also, the “potency against T. b. brucei relative to 12 (fold greater)” value in the data set on T. b. brucei 427 [2] is reported as 9 fold. The solubility at 15 min in data set [3] (0.1 M HCl, pH 1) stood at 1260 µg/mL (≈ 2690 µM); in data set [3] (water, pH 7) it was 9.9 µg/mL (≈ 21.1 µM). In addition, the fraction remaining at 1 h in [4] was 78%; in data set [5], 72%. Further, in the data set with T. b. rhodesiense, the “potency against T. b. rhodesiense relative to 12 (fold higher)” value came to 11 fold.
Regarding `O=[N+]([O-])c1cn2c(n1)[S@+]([O-])C[C@@H](OCc1ccc(OC(F)(F)F)cc1)C2` [Compound 24], the IC50 is 10 µM in the data set on Leishmania infantum (Leishmania infantum); 50 µM in data set [1] (setting [9]); above 10 µg/mL in the data set on L929 mouse fibroblasts; 0.14 µM in the data set with T. b. brucei 427 [2] (Trypanosoma brucei); 1.4 µM in the data set with Trypanosoma cruzi (Trypanosoma cruzi); 0.13 µM in the data set on T. b. rhodesiense (setting [10]). Besides, the IC50 in the data set on T. b. brucei 427 [7] turned out to be 0.07 ± 0.005 µg/mL (≈ 0.179 µM). Moreover, the solubility at 15 min in data set [3] (water) amounted to 106 µg/mL (≈ 271 µM). The amount remaining at 1 h in data set [4] was determined as 82%; in data set [5], 96%. The Cured in the data set with T. b. brucei (TREU 667) [6] (setting [11]) was 0%; in the data set with T. b. brucei (TREU 667) [6] (setting [12]) it was 20%; in the data set on T. b. brucei (TREU 667) [6] (setting [13]), 0%; in the data set with T. b. brucei (EATRO 110) (setting [14]), 0%; in the data set with T. b. brucei (EATRO 110) (setting [15]) it was 25%; in the data set on T. b. brucei (EATRO 110) (setting [16]), 100%. Also, the Cured with T. b. brucei (EATRO 110) (setting [17]), in the data set with T. b. brucei (EATRO 110) (setting [18]) and in the data set on T. b. brucei (EATRO 110) (setting [19]) was 100% throughout. Further, the Cured/Total in the data set on T. b. brucei (TREU 667) [6] (setting [11]) is 0/8; in the data set on T. b. brucei (TREU 667) [6] (setting [12]), 2/10; with T. b. brucei (TREU 667) [6] (setting [13]) it was 0/10; in the data set with T. b. brucei (EATRO 110) (setting [14]) it was 0/4; in the data set with T. b. brucei (EATRO 110) (setting [15]) it was 1/4; with T. b. brucei (EATRO 110) (setting [16]) it was 4/4. Also, the Cured/Total with T. b. brucei (EATRO 110) (setting [17]), in the data set on T. b. brucei (EATRO 110) (setting [18]) and in the data set on T. b. brucei (EATRO 110) (setting [19]) was 5/5 in each case. For the same molecule, the results for the Mean relapse time with T. b. brucei (TREU 667) [6] (setting [11]), in the data set on T. b. brucei (TREU 667) [6] (setting [12]) and in the data set with T. b. brucei (TREU 667) [6] (setting [13]) were 45 days, 70 days and 66 days, respectively. Besides, in the data set with T. b. brucei (TREU 667) [6] (12.5 to 50 mg/kg orally once daily for seven days from day 21), the cure rates was 0–20%. For the same molecule, the Mean survival with T. b. brucei (EATRO 110) (setting [14]) is recorded as 7.5 days; in the data set with T. b. brucei (EATRO 110) (setting [15]), 13 days; with T. b. brucei (EATRO 110) (setting [16]), above 30 days; in the data set with T. b. brucei (EATRO 110) (setting [17]), above 30 days; with T. b. brucei (EATRO 110) (setting [18]), above 30 days; in the data set with T. b. brucei (EATRO 110) (setting [19]), above 30 days. Also, the “lowest dose providing complete cures to all mice” value with T. b. brucei (EATRO 110) (orally once daily for four days) is recorded as 5 mg/kg. For the same molecule, the “efficacy relative to results described for fexinidazole (4) (fold superior)” value with T. b. brucei (EATRO 110) (stage 1 HAT mouse model) was around 20 fold. Moreover, the “Selectivity Index” value with T. b. brucei 427 [7] (L929 vs T. b. brucei) is above 143. Besides, in the data set on T. b. brucei 427 [7] (T. b. brucei), the “potency relative to (6R) enantiomer 26 (fold more potent)” value was “more than 70 fold”. In addition, in the data set with T. b. brucei 427 [7] (T. b. brucei), the “potency relative to cis isomer 25 (fold more potent)” value stood at 40 fold.
Take `O=[N+]([O-])c1cn2c(n1)[S@+]([O-])C[C@H](OCc1ccc(OC(F)(F)F)cc1)C2` [Compound 27]: the IC50 was 48 µM in the data set with Leishmania infantum (Leishmania infantum); above 64 µM in data set [1] (setting [9]); above 10 µg/mL in the data set on L929 mouse fibroblasts; 16 µM with T. b. brucei 427 [2] (Trypanosoma brucei); 13 µM with Trypanosoma cruzi (Trypanosoma cruzi); 4.3 µM in the data set on T. b. rhodesiense (setting [10]). Also, the IC50 with T. b. brucei 427 [7] is above 5 µg/mL. In addition, the share remaining at 1 h in data set [4] was determined as 88%; in data set [5], 89%.
As to `O=C(Nc1ccc2c(c1)B(O)OC2)c1ccc(F)cc1C(F)(F)F` [SCYX-6759], the “cure rate of the CNS infection” value with T. b. brucei (TREU 667) [8] (oral 50 mg/kg twice daily (b.i.d.)) is reported as 83%.
As to `O=[N+]([O-])c1cn2c(n1)[S@@+]([O-])C[C@@H](OCc1ccc(OC(F)(F)F)cc1)C2` [Compound 25], the IC50 with Leishmania infantum (Leishmania infantum) was above 64 µM; in [1] (setting [9]), above 64 µM; in the data set on L929 mouse fibroblasts, above 10 µg/mL; in the data set on T. b. brucei 427 [2] (Trypanosoma brucei), 5.6 µM; in the data set on Trypanosoma cruzi (Trypanosoma cruzi), 13 µM; in the data set with T. b. rhodesiense (setting [10]), 1.9 µM. Further, it took 2.8 ± 0.4 µg/mL (≈ 7.16 µM) to reach half-maximal inhibition with T. b. brucei 427 [7] (IC50). For the same molecule, the amount remaining at 1 h in data set [4] and in data set [5] was 93% throughout.
As to `CC1(C)OB(O)c2cc(NC(=O)c3ccc(F)cc3C(F)(F)F)ccc21` [Compound 5], the cure rate with T. b. brucei (TREU 667) [8] (same CNS model, 25 mg/kg once daily for 7 days) is 100%.
